Measured values taken from ChEMBL document CHEMBL2074215, “The effects of pluronics block copolymers and Cremophor EL on intestinal lipoprotein processing and the potential link with P-glycoprotein in Caco-2 cells” (Pharm Res, 2003).

Target: ATP-dependent translocase ABCB1 (Homo sapiens, UniProt P08183)
Test: TP_TRANSPORTER: transepithelial transport of cyclosporin A in Caco-2 cells
Type: functional, cell-based

Sequence of ATP-dependent translocase ABCB1 (P08183 whole entry): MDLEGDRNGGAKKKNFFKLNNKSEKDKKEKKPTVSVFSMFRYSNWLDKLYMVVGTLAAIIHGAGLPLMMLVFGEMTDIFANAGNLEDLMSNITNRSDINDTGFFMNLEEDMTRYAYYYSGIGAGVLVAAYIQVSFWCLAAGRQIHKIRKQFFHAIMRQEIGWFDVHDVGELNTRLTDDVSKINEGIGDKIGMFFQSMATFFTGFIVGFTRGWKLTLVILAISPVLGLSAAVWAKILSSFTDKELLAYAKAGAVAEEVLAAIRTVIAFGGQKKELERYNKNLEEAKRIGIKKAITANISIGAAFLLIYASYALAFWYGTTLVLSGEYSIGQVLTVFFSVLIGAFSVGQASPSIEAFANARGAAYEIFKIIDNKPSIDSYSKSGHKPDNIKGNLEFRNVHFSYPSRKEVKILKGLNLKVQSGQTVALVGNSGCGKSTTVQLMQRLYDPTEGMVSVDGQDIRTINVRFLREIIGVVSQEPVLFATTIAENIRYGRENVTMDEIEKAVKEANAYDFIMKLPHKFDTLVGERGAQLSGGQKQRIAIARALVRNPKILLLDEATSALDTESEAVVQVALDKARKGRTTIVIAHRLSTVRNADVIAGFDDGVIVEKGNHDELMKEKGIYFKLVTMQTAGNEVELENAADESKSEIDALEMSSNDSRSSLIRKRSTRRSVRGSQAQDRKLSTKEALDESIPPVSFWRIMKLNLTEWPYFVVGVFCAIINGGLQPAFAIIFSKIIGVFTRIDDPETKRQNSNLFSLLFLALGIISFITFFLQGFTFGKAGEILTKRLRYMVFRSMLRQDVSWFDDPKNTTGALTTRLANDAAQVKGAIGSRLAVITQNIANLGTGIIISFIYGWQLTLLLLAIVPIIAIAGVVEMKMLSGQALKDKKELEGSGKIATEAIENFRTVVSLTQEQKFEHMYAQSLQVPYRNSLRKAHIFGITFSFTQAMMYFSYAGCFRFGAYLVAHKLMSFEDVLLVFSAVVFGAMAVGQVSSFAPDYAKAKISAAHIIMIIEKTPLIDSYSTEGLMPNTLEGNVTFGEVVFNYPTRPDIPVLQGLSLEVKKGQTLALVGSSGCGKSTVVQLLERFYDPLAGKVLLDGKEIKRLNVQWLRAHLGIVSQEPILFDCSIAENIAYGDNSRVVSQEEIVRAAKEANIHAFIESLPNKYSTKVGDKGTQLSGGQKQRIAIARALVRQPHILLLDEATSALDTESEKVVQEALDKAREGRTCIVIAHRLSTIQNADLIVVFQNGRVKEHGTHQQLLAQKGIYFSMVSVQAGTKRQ

Row | Activity | Sequence
1 | inhibitor [+] | CREMOPHOR EL
2 | inhibitor [+] | PLURONIC L81
